Measured values as given in patent US20230233569A1 (Revolution Medicines, Inc., priority 2020, published 2023).
Like-named read-outs stand apart in the source and are kept apart here.

Columns and labels:
KRAS G12C = KRAS G12C (Homo sapiens, UniProt P01116+P62937, G12C); assay: Disruption of BRAF RBD interaction with Ras (FRET / MOA assay, with Cyclophilin A); type: biochemical
In short: (§1)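 Biochemical TR-FRET disruption assay: nucleotide-loaded K-Ras with Cyclophilin A and a BRAF RBD construct, compound titrated over 10 points from 30 μM (final).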

NRAS G12C = NRAS G12C (Homo sapiens, UniProt P01111+P62937, G12C); assay: as above; type: biochemical
Sequence of NRAS G12C (P01111 whole entry G12C): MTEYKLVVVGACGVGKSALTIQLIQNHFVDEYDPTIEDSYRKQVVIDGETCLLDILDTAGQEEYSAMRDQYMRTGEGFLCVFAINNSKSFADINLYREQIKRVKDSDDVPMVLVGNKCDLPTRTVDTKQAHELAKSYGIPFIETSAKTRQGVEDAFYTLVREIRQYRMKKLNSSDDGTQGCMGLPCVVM
Sequence of NRAS G12C (P62937 whole entry): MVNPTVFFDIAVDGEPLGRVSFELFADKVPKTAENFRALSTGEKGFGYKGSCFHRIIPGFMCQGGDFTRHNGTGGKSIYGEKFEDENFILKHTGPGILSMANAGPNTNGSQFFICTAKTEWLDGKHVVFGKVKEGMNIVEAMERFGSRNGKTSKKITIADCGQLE

KRAS G12D = KRAS G12D (Homo sapiens, UniProt P01116+P62937, G12D); assay: as above; type: biochemical
Sequence of KRAS G12D (P01116 1-169 isoform P01116-2 G12D limits assumed): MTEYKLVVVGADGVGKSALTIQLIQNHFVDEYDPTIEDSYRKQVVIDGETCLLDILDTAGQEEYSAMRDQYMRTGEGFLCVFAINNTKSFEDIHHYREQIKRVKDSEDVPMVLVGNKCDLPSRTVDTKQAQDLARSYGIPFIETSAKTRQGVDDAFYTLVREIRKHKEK
Sequence of KRAS G12D (P62937 whole entry): as the sequence (P62937 whole entry) above
In short: as §1

KRAS G13C = KRAS G13C (Homo sapiens, UniProt P01116+P62937, G13C); assay: as above; type: biochemical
Sequence of KRAS G13C (P01116 1-169 isoform P01116-2 G13C): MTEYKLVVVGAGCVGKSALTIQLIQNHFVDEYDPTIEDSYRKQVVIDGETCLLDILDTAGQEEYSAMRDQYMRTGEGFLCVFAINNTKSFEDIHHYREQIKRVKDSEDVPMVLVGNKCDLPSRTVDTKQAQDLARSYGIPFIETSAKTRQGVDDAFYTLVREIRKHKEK
Sequence of KRAS G13C (P62937 whole entry): as the sequence (P62937 whole entry) above
In short: as §1

KRAS WT = KRAS WT (Homo sapiens, UniProt P01116+P62937); assay: as above; type: biochemical
Sequence of KRAS WT (P01116 1-169 isoform P01116-2 limits assumed): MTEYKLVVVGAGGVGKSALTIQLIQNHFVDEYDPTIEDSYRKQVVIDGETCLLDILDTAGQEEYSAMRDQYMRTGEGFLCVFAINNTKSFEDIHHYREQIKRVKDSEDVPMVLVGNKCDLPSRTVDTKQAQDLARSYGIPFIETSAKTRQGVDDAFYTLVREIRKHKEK
Sequence of KRAS WT (P62937 whole entry): as the sequence (P62937 whole entry) above
In short: as §1

KRAS G12S = KRAS G12S (Homo sapiens, UniProt P01116+P62937, G12S); assay: as above; type: biochemical
Sequence of KRAS G12S (P01116 1-169 isoform P01116-2 G12S limits assumed): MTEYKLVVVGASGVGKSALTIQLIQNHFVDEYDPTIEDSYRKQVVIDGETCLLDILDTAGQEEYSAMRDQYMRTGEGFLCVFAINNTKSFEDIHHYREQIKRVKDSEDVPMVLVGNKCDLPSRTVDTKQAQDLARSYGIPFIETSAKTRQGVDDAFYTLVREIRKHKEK
Sequence of KRAS G12S (P62937 whole entry): as the sequence (P62937 whole entry) above
In short: as §1

KRAS G13D = KRAS G13D (Homo sapiens, UniProt P01116+P62937, G13D); assay: as above; type: biochemical
Sequence of KRAS G13D (P01116 1-169 isoform P01116-2 G13D limits assumed): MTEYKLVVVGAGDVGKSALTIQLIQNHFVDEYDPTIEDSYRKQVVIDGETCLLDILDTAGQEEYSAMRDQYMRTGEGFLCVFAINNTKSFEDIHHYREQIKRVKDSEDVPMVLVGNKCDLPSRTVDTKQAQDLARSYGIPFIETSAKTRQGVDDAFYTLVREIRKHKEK
Sequence of KRAS G13D (P62937 whole entry): as the sequence (P62937 whole entry) above
In short: as §1

KRAS G12V = KRAS G12V (Homo sapiens, UniProt P01116+P62937, G12V); assay: as above; type: biochemical
Sequence of KRAS G12V (P01116 1-169 isoform P01116-2 G12V limits assumed): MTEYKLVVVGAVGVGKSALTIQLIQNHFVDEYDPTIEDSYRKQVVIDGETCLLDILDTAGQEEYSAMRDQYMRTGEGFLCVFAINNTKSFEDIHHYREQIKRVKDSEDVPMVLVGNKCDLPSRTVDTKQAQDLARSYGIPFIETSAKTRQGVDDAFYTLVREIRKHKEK
Sequence of KRAS G12V (P62937 whole entry): as the sequence (P62937 whole entry) above
In short: as §1

NRAS WT = NRAS WT (Homo sapiens, UniProt P01111+P62937); assay: as above; type: biochemical
Sequence of NRAS WT (P01111 whole entry): as the sequence (P01111 whole entry G12C) above, with C12G counted along it
Sequence of NRAS WT (P62937 whole entry): as the sequence (P62937 whole entry) above
In short: (§2)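 TR-FRET in 25 mM HEPES pH 7.3, 100 mM NaCl, 5 mM MgCl2, 0.1% BSA: 25 μM Cyclophilin A, 12.5 nM His6-Ras-GMPPNP, 50 nM GST-BRAF RBD with compound (10-point 3-fold series from 30 μM), 3 h at 25° C. Anti-His Eu/anti-GST APC added, 1.5 h more; IC50 from decreased FRET ratio versus DMSO.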

NRAS Q61K = NRAS Q61K (Homo sapiens, UniProt P01111+P62937, Q61K); assay: as above; type: biochemical
Sequence of NRAS Q61K (P01111 whole entry Q61K): as the sequence (P01111 whole entry G12C) above, with C12G, Q61K counted along it
Sequence of NRAS Q61K (P62937 whole entry): as the sequence (P62937 whole entry) above
In short: as §2

KRAS Q61H = KRAS Q61H (Homo sapiens, UniProt P01116+P62937, Q61H); assay: as above; type: biochemical
Sequence of KRAS Q61H (P01116 1-169 isoform P01116-2 Q61H limits assumed): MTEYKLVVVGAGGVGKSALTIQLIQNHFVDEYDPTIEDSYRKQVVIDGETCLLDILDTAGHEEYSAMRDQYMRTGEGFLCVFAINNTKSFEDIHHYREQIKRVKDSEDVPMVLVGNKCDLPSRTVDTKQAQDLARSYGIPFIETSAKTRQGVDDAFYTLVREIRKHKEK
Sequence of KRAS Q61H (P62937 whole entry): as the sequence (P62937 whole entry) above
In short: as §2

NRAS Q61R = NRAS Q61R (Homo sapiens, UniProt P01111+P62937, Q61R); assay: as above; type: biochemical
Sequence of NRAS Q61R (P01111 whole entry Q61R): as the sequence (P01111 whole entry G12C) above, with C12G, Q61R counted along it
Sequence of NRAS Q61R (P62937 whole entry): as the sequence (P62937 whole entry) above
In short: as §2

Capan-1 (K-Ras G12V) = assay: CellTiter-Glo cell viability assay, 5-day treatment; type: cell-based; settings: Homo sapiens, CAPAN-1, 120 h, 5-day treatment; read-out: Capan-1 Cell Viability assay data (K-Ras G12V, IC50)
In short: (§3)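 Seeded cells received test compound by direct dispensing. On day 5 the plates sat at room temperature approximately 30 minutes, then luminescence was measured. Data were normalized to DMSO and curve-fitted with four parameters.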

NCI-H358 (K-Ras G12C) = assay: as above; type: cell-based; settings: Homo sapiens, NCI-H358, 120 h, 5-day treatment; read-out: H358 Cell Viability assay data (K-Ras G12C, IC50)
In short: as §3

[1] = read-out: KRAS G12C FRET data, IC50
[2] = NRAS G12C, read-out: NRAS G12C FRET data IC50
[3] = read-out: KRAS G12D FRET data, IC50
[4] = read-out: KRAS G13C FRET data, IC50
[5] = KRAS WT, read-out: KRAS WT FRET data IC50
[6] = read-out: KRAS G12S FRET data, IC50
[7] = KRAS G13D, read-out: KRAS G13D FRET data IC50
[8] = KRAS G12V, read-out: KRAS G12V FRET data IC50
[9] = NRAS WT, read-out: NRAS WT FRET data IC50
[10] = NRAS Q61K, read-out: NRAS Q61K FRET data IC50
[11] = KRAS Q61H, read-out: KRAS Q61H FRET data IC50
[12] = NRAS Q61R, read-out: NRAS Q61R FRET data IC50

Sequence of KRAS G12C (P01116 1-169 isoform P01116-2 G12C): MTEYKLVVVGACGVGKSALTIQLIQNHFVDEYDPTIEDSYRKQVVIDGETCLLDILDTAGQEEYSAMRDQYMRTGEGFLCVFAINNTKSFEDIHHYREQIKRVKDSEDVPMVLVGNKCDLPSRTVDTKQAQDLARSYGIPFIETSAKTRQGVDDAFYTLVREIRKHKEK
Sequence of KRAS G12C (P62937 whole entry): as the sequence (P62937 whole entry) above

Row | SMILES | IC50 (KRAS G12C; [1]) [µM] | IC50 (NRAS G12C; [2]) [µM] | IC50 (KRAS G12D; [3]) [µM] | IC50 (KRAS G13C; [4]) [µM] | IC50 (KRAS WT; [5]) [µM] | IC50 (KRAS G12S; [6]) [µM] | IC50 (KRAS G13D; [7]) [µM] | IC50 (KRAS G12V; [8]) [µM] | IC50 (NRAS WT; [9]) [µM] | IC50 (NRAS Q61K; [10]) [µM] | IC50 (KRAS Q61H; [11]) [µM] | IC50 (NRAS Q61R; [12]) [µM] | IC50 (Capan-1 (K-Ras G12V)) [µM] | IC50 (NCI-H358 (K-Ras G12C)) [µM] | other results
1 | CCn1c(-c2cccnc2[C@H](C)OC)c2c3cc(ccc31)-c1csc(n1)C[C@H](NC(=O)[C@H](C(C)C)N(C)C(=O)N1C[C@@H]3CN(C)CC[C@@H]31)C(=O)N1CCC[C@H](N1)C(=O)OCC(C)(C)C2 [Example A481] | 0.1 to 1 | 0.1 to 1 | 1 to 10 | 1 to 10 | 1 to 10 | 1 to 10 | 1 to 10 | 1 to 10 | 0.1 to 1 | 0.1 to 1 | 0.1 to 1 | 1 to 10 | 0.01 to 0.1 | 0.01 to 0.1 | –
2 | CCn1c(-c2cccnc2[C@H](C)OC)c2c3cc(ccc31)-c1csc(n1)C[C@H](NC(=O)[C@H](C(C)C)N(C)C(=O)N1CC3(C1)CS(=O)(=O)CCN3C)C(=O)N1CCC[C@H](N1)C(=O)OCC(C)(C)C2 [Example A482] | 1 to 10 | 0.1 to 1 | > 10 | 1 to 10 | 1 to 10 | 1 to 10 | 1 to 10 | 1 to 10 | 1 to 10 | 0.1 to 1 | 0.1 to 1 | 1 to 10 | 0.1 to 1 | 0.1 to 1 | –
3 | CCn1c(-c2cccnc2[C@H](C)OC)c2c3cc(ccc31)-c1csc(n1)C[C@H](NC(=O)[C@H](C(C)C)N(C)C(=O)N1CCCC[C@@H](N(C)C)C1)C(=O)N1CCC[C@H](N1)C(=O)OCC(C)(C)C2 [Example A492] | 0.1 to 1 | 0.1 to 1 | 0.1 to 1 | 0.1 to 1 | 0.1 to 1 | 0.1 to 1 | 0.1 to 1 | 0.1 to 1 | 0.1 to 1 | 0.1 to 1 | 0.01 to 0.1 | 0.1 to 1 | 0.1 to 1 | 0.01 to 0.1 | –
4 | CCn1c(-c2cccnc2[C@H](C)OC)c2c3cc(ccc31)-c1csc(n1)C[C@H](NC(=O)[C@H](C(C)C)N(C)C(=O)N1CCC[C@@H](N(C)C)CC1)C(=O)N1CCC[C@H](N1)C(=O)OCC(C)(C)C2 [Example A494] | – | – | – | – | – | – | – | – | – | – | – | – | 0.01 to 0.1 | 0.01 to 0.1 | IC50 (KRAS G12C; KRAS G12C FRET data, IC50): 0.01 to 0.1 µM; IC50 (NRAS G12C; NRAS G12C FRET data IC50, NRAS G12C): 0.01 to 0.1 µM; IC50 (KRAS G12D; KRAS G12D FRET data, IC50): 0.01 to 0.1 µM; IC50 (KRAS G13C; KRAS G13C FRET data, IC50): 0.1 to 1 µM; IC50 (KRAS WT; KRAS WT FRET data IC50, KRAS WT): 0.01 to 0.1 µM; IC50 (KRAS G12S; KRAS G12S FRET data, IC50): 0.01 to 0.1 µM; IC50 (KRAS G13D; KRAS G13D FRET data IC50, KRAS G13D): 0.1 to 1 µM; IC50 (KRAS G12V; KRAS G12V FRET data IC50, KRAS G12V): 0.1 to 1 µM; IC50 (NRAS WT; NRAS WT FRET data IC50, NRAS WT): 0.01 to 0.1 µM; IC50 (NRAS Q61K; NRAS Q61K FRET data IC50, NRAS Q61K): 0.01 to 0.1 µM; IC50 (KRAS Q61H; KRAS Q61H FRET data IC50, KRAS Q61H): 0.01 to 0.1 µM; IC50 (NRAS Q61R; NRAS Q61R FRET data IC50, NRAS Q61R): 0.01 to 0.1 µM
5 | CCn1c(-c2cccnc2[C@H](C)OC)c2c3cc(ccc31)-c1csc(n1)C[C@H](NC(=O)[C@H](C(C)C)N(C)C(=O)N1C3CC1CS(=O)(=O)C3)C(=O)N1CCC[C@H](N1)C(=O)OCC(C)(C)C2 [Example A496] | 0.1 to 1 | 0.1 to 1 | 1 to 10 | 1 to 10 | 0.1 to 1 | 1 to 10 | 1 to 10 | 0.1 to 1 | 0.1 to 1 | 0.1 to 1 | 0.1 to 1 | 1 to 10 | 0.1 to 1 | 0.1 to 1 | –
6 | CCn1c(-c2cccnc2[C@H](C)OC)c2c3cc(ccc31)-c1csc(n1)C[C@H](NC(=O)[C@H](C(C)C)N(C)C(=O)N1C[C@H]3CN(C)C[C@H]31)C(=O)N1CCC[C@H](N1)C(=O)OCC(C)(C)C2 [Example A497] | 0.1 to 1 | 0.1 to 1 | 1 to 10 | 0.1 to 1 | 1 to 10 | 1 to 10 | 1 to 10 | 1 to 10 | 0.1 to 1 | 0.1 to 1 | 0.1 to 1 | 1 to 10 | 0.1 to 1 | 0.1 to 1 | –
7 | CCn1c(-c2cccnc2[C@H](C)OC)c2c3cc(ccc31)-c1csc(n1)C[C@H](NC(=O)[C@H](C(C)C)N(C)C(=O)N1CCCC13CCN(C)CC3)C(=O)N1CCC[C@H](N1)C(=O)OCC(C)(C)C2 [Example A498] | 0.01 to 0.1 | 0.01 to 0.1 | 0.1 to 1 | 0.1 to 1 | 0.01 to 0.1 | 0.01 to 0.1 | 0.1 to 1 | 0.1 to 1 | 0.01 to 0.1 | 0.1 to 1 | 0.01 to 0.1 | 0.1 to 1 | 0.1 to 1 | 0.01 to 0.1 | –
8 | CCn1c(-c2cccnc2[C@H](C)OC)c2c3cc(ccc31)-c1csc(n1)C[C@H](NC(=O)[C@H](C(C)C)N(C)C(=O)N1CC3(CN(C)CCO3)C1)C(=O)N1CCC[C@H](N1)C(=O)OCC(C)(C)C2 [Example A499] | 0.1 to 1 | 0.1 to 1 | 1 to 10 | 1 to 10 | 1 to 10 | 1 to 10 | 1 to 10 | 1 to 10 | 1 to 10 | 0.1 to 1 | 0.1 to 1 | 0.1 to 1 | 0.01 to 0.1 | 0.01 to 0.1 | –
